Results reported in patent US7919487B2, “Heteroaryl compounds” (Synta Pharmaceuticals Corporation, priority 2004, dated 2011).

Each molecule was assayed on IL-12 production in human PBMC or THP-1 cells (assay: Human in vitro assay: inhibition of IL-12 production in human PBMC or THP-1 cells (ELISA)). Details: THP-1, human PBMC or THP-1 cells, IFNγ plus LPS or SAC stimulation, representative in vitro data.
Format: cell-based
Text: The biological activities of the compounds of the invention can be evaluated by a number of cell-based assays. One of such assays can be conducted using cells from human peripheral blood mononuclear cells (PBMC) or human monocytic cell line (THP-1). The cells are stimulated with a combination of human interferon-γ (IFNγ) and lipopolysaccharide or a combination of IFNγ and Staphylococcus aureus Cowan I in the presence of a test compound. The level of inhibition of IL-12 production can be measured by determining the amount of p70 by using a sandwich ELISA assay with anti-human IL-12 antibodies. IC50 of the test compound can then be determined. Specifically, PBMC or THP-1 cells are incubated with the test compound. Cell viability was assessed using the bioreduction of MTS [3-(4,5-dimethylthiazol-2-yl)-5-(3-carboxymethoxyphenyl)-2-(4-sulfophenyl)-2H-tetrazolium] (Promega, Madison, Wis.).
Reagents. Staphylococcus aureus Cowan I (SAC) was obtained from Calbiochem (La Jolla, Calif.), and lipopolysaccharide (LPS, Serratia marscencens) was obtained from Sigma (St Louis, Mo.). Human and mouse recombinant IFNγ were purchased from Boehringer Mannheim (Mannheim, Germany) and Pharmingen (San Diego, Calif.), respectively.
Human In Vitro Assay. Human PBMC were isolated by centrifugation using Ficoll-Paque (Pharmacia Biotech, Uppsala, Sweden) and prepared in RPMI medium supplemented with 10% fetal calf serum (FCS), 100 U/mL penicillin, and 100 μg/mL streptomycin. PBMC were plated in wells of a 96-well plate at a concentration of 5×10^5 cells/well, and primed by adding IFNγ (30 U/mL) for 22 h and stimulated by adding LPS (1 μg/mL), or by adding IFNγ (100 U/mL) and then stimulated by adding SAC (0.01%). A test pyrimidine compound was dissolved in DMSO, and added to wells of the 96-well plate. The final DMSO concentration was adjusted to 0.25% in all cultures, including the compound-free control. Human THP-1 cells were plated in wells, primed by adding IFNγ (100 U/mL) for 22 h and stimulated by adding SAC (0.025%) in the presence of different concentrations of the pyrimidine compound. Cell-free supernatants were taken 18 h later for measurement of cytokines. Cell viability was assessed using the bioreduction of MTS. Cell survival was estimated by determining the ratio of the absorbance in compound-treated groups versus compound-free control.
The supernatant was assayed for the amount of IL-12p40, IL-12p70, or IL-10 by using a sandwich ELISA with anti-human antibodies, i.e., a Human IL-12 p40 ELISA kit from R&D Systems (Berkeley, Calif.), and a Human IL-12 p70 or IL-10 ELISA kit from Endogen (Cambridge, Mass.). Assays were based on the manufacturer's instructions.
The biological activities of compounds were tested on human PBMC or THP-1 cells.
With `O=C(Nc1ccc2c(c1)CCC2)Nc1cccc(-c2ccncc2)n1` [Compound 100, 1-[2,4′]Bipyridinyl-6-yl-3-indan-5-yl-urea] the IC50 was 0.148 µM. `COc1nc(N/N=C/c2cn(C(C)=O)c3ccccc23)nc(N(C(C)C)C(C)C)n1` [Compound 5, 1-{3-[(4-Diisopropylamino-6-methoxy-[1,3,5]triazin-2-yl)-hydrazonomethyl]-indol-1-yl}-ethanone] gave an IC50 of 12 µM. `COc1nc(N/N=C/c2cn(C)c3ccccc23)nc(N(C(C)C)C(C)C)n1` [Compound 1, Diisopropyl-{4-methoxy-6-[N′-(1-methyl-1H-indol-3-ylmethylene)-hydrazino]-[1,3,5]triazin-2-yl}-amine] was tested, and the IC50 was 13 µM. For `COCCN(C)c1cc(C(=O)Nc2ccc3[nH]c(C)c(C)c3c2)nc(-c2ccncc2)c1` [Compound 102, 4-[(2-Methoxy-ethyl)-methyl-amino]-[2,4′]bipyridinyl-6-carboxylic acid(2,3-dimethyl-1H-indol-5-yl)-amide], the IC50 was 0.0026 µM. Molecule `Cc1[nH]c2ccc(NC(=O)c3cccc(-c4cccnc4)n3)cc2c1C` [Compound 106, [2,3′]Bipyridinyl-6-carboxylic acid(2,3-dimethyl-1H-indol-5-yl)-amide] has an IC50 greater than 1 µM. With `CCN(CC)c1cc(N/N=C/c2cccc(C)c2)nc(OCCN2CCOCC2)n1` [Compound 30, Diethyl-[6-[N′-(3-methyl-benzylidene)-hydrazino]-2-(2-morpholin-4-yl-ethoxy)-pyrimidin-4-yl]-amine] the IC50 was 0.875 µM. `COCCN(C)c1cc(N/N=C/c2cccc(C)c2)nc(OCCN2CCOCC2)n1` [Compound 31, (2-Methoxy-ethyl)-methyl-[6-[N′-(3-methyl-benzylidene)-hydrazino]-2-(2-morpholin-4-yl-ethoxy)-pyrimidin-4-yl]-amine] was tested, and the IC50 was 0.674 µM. `Cc1cccc(/C=N/Nc2cc(OCCN3CCOCC3)nc(-c3ccncc3)n2)c1` [Compound 141, (E)-4-(2-(6-(2-(3-methylbenzylidene)hydrazinyl)-2-(pyridin-4-yl)pyrimidin-4-yloxy)ethyl)morpholine] showed an IC50 of 0.0946 µM. In the case of `Cc1[nH]c2ccc(NC(=O)c3cccc(-c4ccncc4F)n3)cc2c1C` [Compound 103, 3′-Fluoro-[2,4′]bipyridinyl-6-carboxylic acid(2,3-dimethyl-1H-indol-5-yl)-amide], the IC50 is reported as 0.158 µM. `Cc1[nH]c2ccc(NC(=O)c3cccc(-c4cn[nH]c4)n3)cc2c1C` [Compound 108, 6-(1H-Pyrazol-4-yl)-pyridine-2-carboxylic acid(2,3-dimethyl-1H-indol-5-yl)-amide] showed an IC50 of 0.218 µM. With `C(=N\Nc1nc(OCCc2ccccn2)nc(N2CCC3(CC2)OCCO3)n1)/c1c[nH]c2ccccc12` [Compound 8, N-[4-(1,4-Dioxa-8-aza-spiro[4.5]dec-8-yl)-6-(2-pyridin-2-yl-ethoxy)-[1,3,5]triazin-2-yl]-N′-(1H-indol-3-ylmethylene)-hydrazine] the IC50 was 0.5 µM. `COc1ccc(CCOc2nc(N/N=C/c3c[nH]c4ccccc34)nc(N3CCSC3)n2)cc1OC` [Compound 7, N-{4-[2-(3,4-Dimethoxy-phenyl)-ethoxy]-6-thiazolidin-3-yl-[1,3,5]triazin-2-yl}-N′-(1H-indol-3-ylmethylene)-hydrazine] gave an IC50 of 0.02 to 0.053 µM. `Cc1cccc(/C=N/Nc2cc(N)nc(N/N=C/c3cccc(C)c3)n2)c1` [Compound 19, 2,6-Bis-[N′-(3-methyl-benzylidene)-hydrazino]-pyrimidin-4-ylamine] gave an IC50 of 0.119 µM. `COc1ccc(CCOc2nc(N/N=C/c3cccc(C)c3)nc(-n3ccnc3)n2)cc1OC` [Compound 21, N-{4-[2-(3,4-Dimethoxy-phenyl)-ethoxy]-6-imidazol-1-yl-[1,3,5]triazin-2yl}-N′-(3-methyl-benzylidene)-hydrazine] gave an IC50 of 0.103 µM. `Cc1[nH]c2ccc(NC(=O)c3cc(NCCN4CCOCC4)nc(N(C)C)n3)cc2c1C` [Compound 147, N-(2,3-dimethyl-1H-indol-5-yl)-2-(dimethylamino)-6-(2-morpholinoethylamino)pyrimidine-4-carboxamide] gave an IC50 greater than 1 µM. Molecule `COc1nc(N/N=C/c2c[nH]c3ccc(F)cc23)nc(N(C(C)C)C(C)C)n1` [Compound 4, {4-[N′-(5-Fluoro-1H-indol-3-ylmethylene)-hydrazino]-6-methoxy-[1,3,5]triazin-2-yl}-diisopropyl-amine] has an IC50 of 13 µM. `CSc1nc(NC(=O)Nc2cccc(C)c2)nc(-c2ccncc2)n1` [Compound 144, 1-(4-(methylthio)-6-(pyridin-4-yl)-1,3,5-triazin-2-yl)-3-m-tolylurea] gave an IC50 of 0.128 µM. Work on `Cc1[nH]c2ccc(NC(=O)c3cc(NCCN4CCOCC4)nc(N4CCSC4)n3)cc2c1C` [Compound 148, N-(2,3-dimethyl-1H-indol-5-yl)-6-(2-morpholinoethylamino)-2-(thiazolidin-3-yl)pyrimidine-4-carboxamide] yielded an IC50 of 0.055 µM. `Cc1cccc(/C=N/Nc2nc(CCCO)cc(N(C)C)n2)c1` [Compound 27, 3-{6-Dimethylamino-2-[N′-(3-methyl-benzylidene)-hydrazino]-pyrimidin-4-yl}-propan-1-ol] gave an IC50 of 9 µM. For `Cc1cccc(/C=N/Nc2nc(N)nc(-c3cccnc3)n2)c1` [Compound 143, (E)-4-(2-(3-methylbenzylidene)hydrazinyl)-6-(pyridin-3-yl)-1,3,5-triazin-2-amine], the IC50 was greater than 1 µM. For `Cc1[nH]c2ccc(NC(=O)c3cc(OCCN4CCOCC4)cc(-c4ccncc4)n3)cc2c1C` [Compound 101, 4-(2-Morpholin-4-yl-ethoxy)-[2,4′]bipyridinyl-6-carboxylic acid (2,3-dimethyl-1H-indol-5-yl)-amide], the IC50 was 0.02 µM. Work on `COc1ccc(CCNc2nccc(N/N=C/c3cccc(C)c3)n2)cc1OC` [Compound 17, [2-(3,4-Dimethoxy-phenyl)-ethyl]-{4-[N′-(3-methyl-benzylidene)-hydrazino]-pyrimidin-2-yl}-amine] yielded an IC50 of 0.636 µM. With `Cc1[nH]c2ccc(NC(=O)c3cccc(-c4cncnc4)n3)cc2c1C` [Compound 104, 6-Pyrimidin-5-yl-pyridine-2-carboxylic acid(2,3-dimethyl-1H-indol-5-yl)-amide] the IC50 was greater than 1 µM. `COc1ccc(CCOc2nc(N/N=C/c3cccc(C)c3)cc(N(C)C)n2)cc1OC` [Compound 15, {2-[2-(3,4-Dimethoxy-phenyl)-ethoxy]-6-[N′-(3-methyl-benzylidene)-hydrazino]-pyrimidin-4-yl}-dimethyl-amine] gave an IC50 of 0.02 to 0.056 µM. With `CSc1nc(NC(=O)Nc2cccc(C)c2)nc(-c2cccnc2)n1` [Compound 145, 1-(4-(methylthio)-6-(pyridin-3-yl)-1,3,5-triazin-2-yl)-3-m-tolylurea] the IC50 was greater than 1 µM. Molecule `Cc1[nH]c2ccc(NC(=O)c3cccc(-c4ccnc(F)c4)n3)cc2c1C` [Compound 107, 2′-Fluoro-[2,4′]bipyridinyl-6-carboxylic acid(2,3-dimethyl-1H-indol-5-yl)-amide] has an IC50 of 0.193 µM. Work on `O=C1CCN(c2nc(N/N=C/c3c[nH]c4ccccc34)nc(OCCc3ccccn3)n2)CC1` [Compound 11, 1-[4-[N′-(1H-Indol-3-ylmethylene)-hydrazino]-6-(2-pyridin-2-yl-ethoxy)-[1,3,5]triazin-2-yl]-piperidin-4-one] yielded an IC50 of 0.5 µM. `COc1nc(N/N=C/c2c[nH]c3ccccc23)nc(N(C(C)C)C(C)C)n1` [Compound 2, {4-[N′-(1H-Indol-3-ylmethylene)-hydrazino]-6-methoxy-[1,3,5]triazin-2-yl}-diisopropyl-amine] gave an IC50 of 13.6 µM. With `COCc1cc(N/N=C/c2cccc(C)c2)nc(-c2ccncc2)n1` [Compound 142, (E)-4-(methoxymethyl)-6-(2-(3-methylbenzylidene)hydrazinyl)-2-(pyridin-4-yl)pyrimidine] the IC50 was 0.08 µM. With `Cc1cccc(/C=N/Nc2nc(CCCOC(=O)Nc3ccc(C(F)(F)F)cc3)cc(N(C)C)n2)c1` [Compound 29, (4-Trifluoromethyl-phenyl)-carbamic acid 3-{6-dimethylamino-2-[N′-(3-methyl-benzylidene)-hydrazino]-pyrimidin-4-yl}-propyl ester] the IC50 was 10 µM. Molecule `COc1nc(N/N=C/c2c[nH]c3c(C)cccc23)nc(N(C(C)C)C(C)C)n1` [Compound 3, Diisopropyl-{4-methoxy-6-[N′-(7-methyl-1H-indol-3-ylmethylene)-hydrazino]-[1,3,5]triazin-2-yl}-amine] has an IC50 of 7.8 µM.
